The text below walks through data of US7423068B2, “Control of parasitic mites of honey bees” (The United States of America as represented by the …, priority 2001, dated 2008).

Like-named read-outs stand apart in the source and are kept apart here.

The test system of one data set is free-running adult mites. The procedure: 2-Heptanone was tested for miticidal activity in two separate sets of bioassays. In the petri dish bioassays we exposed free-running adult mites to volatiles from 2-heptanone either in pure form or in an acrylic block dispenser (as described in a further experiment, below) and measured mortality over time. Mites were placed in petri dishes (5-10 mites/dish, 4 dishes per treatment and 4 dishes for controls) that were lined on the bottom with damp tissue paper covered with Parafilm®. Holes were punched in the Parafilm® using an insect pin to create a humid environment in the petri dish. A piece of filter paper the same size as the petri dish was placed on top of the Parafilm® sheet. In the first petri dish bioassay, 40 μl of pure 2-heptanone was placed on a piece of filter paper on the lid of the petri dish (treatment dishes). The Control dishes were set up as described above but nothing was added to the piece of filter paper fastened to the lid of the petri dish. The petri dishes were placed in separate incubators for treatments and Controls. Incubator temperatures were maintained at 33-34.4° C. […] In the second bioassay 0.1 g of a 30% concentration of 2-heptanone in acrylic block made as in Example 6 was placed in a plastic weighing boat in the center of petri dishes prepared as described above. Control petri dishes were prepared identically to those containing the acrylic block, but the weighing boat in the center of the dish was empty.
In another series of tests, 2-heptanone, 98+% (Sigrma-Aldrich); 3-heptanone (Fluka Chemika); 4-heptanone (Fluka Chemika); 2-hexanone; 2-octanone, 98% (Aldrich Chemical Co.); 1-heptanol (Fluka Chemika, 99.5% GC), and heptaldehyde, 95% (Aldrich Chemical Co.) were tested in petri dish bioassays wherein free-running adult mites were exposed to 40 μl of pure compound placed on filter paper as described above. The test conditions and Controls were as described above.
The test conditions and Controls were as described above.

For data set [1] the following is noted: cited from earlier work.
Setting [2] is: 40 μl pure compound on filter paper, exposure time 1 hr, S.E. ± 0 unless noted.
[3] abbreviates: 40 μl pure compound on filter paper, exposure time 2 hrs, S.E. ± 0 unless noted.

As to `C=C(C)C1CC=C(C)CC1` (single isomer, unassigned; (+)) [d-Limonene, (+)-4-isopropenyl-1-methyl-1-cyclohexene], the “Average % Mortality ± S.E. Treatment” value in the data set on free-running adult mites (setting [2]) was 5.0 ± 5.0%; in the data set with free-running adult mites (setting [3]), 55.0 ± 9.57%.

Consider `CCC(C)=O` [2-Butanone], for which the “Average % Mortality ± S.E. Treatment” value in the data set with free-running adult mites (setting [2]) was found to be 87.5 ± 7.22%; with free-running adult mites (setting [3]) it was 77.3 ± 15.6%. `CCCCC(C)=O` [2-Hexanone]: in the data set on free-running adult mites (40 μl pure compound on filter paper, exposure time 1 hr), the “% Mortality Treatment” value turned out to be 100%.

For the compound `CCCCCCC(C)=O` [2-Octanone], in the data set on free-running adult mites (in vivo), the “% Mortality Treatment” value is given as 100%.

On to `CCCC(C)=O` [2-Pentanone], for which the solubility in water entry in data set [1] (in words) is on record as “almost insoluble in water”.

As to `CCCCC(=O)CC` [3-Heptanone], the “% Mortality Treatment” value in the data set on free-running adult mites (in vivo) was 100%. As to `CCCC(=O)CCC` [4-Heptanone], in the data set with free-running adult mites (in vivo), the “% Mortality Treatment” value worked out at 100%. Regarding `CC(C)=O` [Acetone], the “Average % Mortality ± S.E. Treatment” value was 48 ± 8.65% with free-running adult mites (setting [2]) and 81.2 ± 12.0% with free-running adult mites (setting [3]). The solubility in water entry in data set [1] (in words) is listed as “miscible with water”.

For the compound `O=Cc1ccccc1` [Benzaldehyde], the results for the “Average % Mortality ± S.E. Treatment” value with free-running adult mites (setting [2]) and with free-running adult mites (setting [3]) were 55 ± 12.6% and 100%, respectively. In addition, in data set [1], the solubility in water entry is reported as “about 350 parts water”. In the case of `CCCC(=O)OCC` [Ethyl Butyrate, Ethyl butyrate], the “Average % Mortality ± S.E. Treatment” value in the data set with free-running adult mites (in vivo) is recorded as 81.2 ± 12.0%. Moreover, the solubility in water result in data set [1] is “about 150 parts water”. Consider `CCCCCCC=O` [Heptaldehyde], for which the “% Mortality Treatment” value in the data set on free-running adult mites (in vivo) stood at 100%.
